Converted amounts (≈) assume the structure as drawn. “And” between values parts separate entries of the source, which are not always exact repeats. Identical values can stand only once.
How the values were obtained:
[1] = test system: Trypanosoma cruzi; assay: (§1) DNDI: Chagas in Vitro; assay type: functional, organism-based, Tulahuen C4 (LacZ)
[2] = test system: Trypanosoma cruzi; assay: as §1; assay type: functional, Tulahuen C4 (LacZ)
[3] = test system: Trypanosoma brucei rhodesiense; assay: (§2) DNDI: HAT in Vitro; assay type: functional, organism-based, ATCC 30027
[4] = (§3) DNDI: Cytotoxicity in vitro, against rat skeletal myoblast (L-6) cells; details: L-6 cells (skeletal myoblasts), IC50
[5] = biological target: T1, Cytochrome P450 3A4 (Homo sapiens, UniProt P08684); assay: DNDI: CYP Inhibition; assay type: ADME
[6] = in vitro; details: human, microsomes, t (1 / 2)
[7] = in vitro; details: human, microsomes
[8] = in vitro; details: human, microsomes, EH
[9] = DNDI: Solubility in phosphate buffer at pH 6.5 determined by nephelometry; details: phosphate buffer, pH 6.5, Kinetic
[10] = DNDI: Lipophilicity (gLogD) at pH 3; details: buffer, pH 3, logD
[11] = DNDI: Lipophilicity (gLogD) at pH 7.4; details: buffer, pH 7.4, logD
[12] = test system: L6; assay: as §3; details: L-6 cells (skeletal myoblasts)
[13] = DNDI: Solubility in 0.01M HCl at pH 2 determined by nephelometry; details: 0.01M HCl, pH 2, Kinetic
[14] = biological target: T1, Cytochrome P450 3A4; assay: DNDI: Human CYP3A4 inhibition determined using 6b-hydroxylation of testosterone
[15] = (§4) DNDI: Stability, 4 hour; assay type: ADME, cell-free; details: mouse, plasma
[16] = as §4; assay type: ADME, tissue-based; details: mouse, blood
[17] = test system: Leishmania donovani; assay: DNDI: Leish macro in vitro at 10 uM; assay type: functional; details: MHOM/ET/67/L82
[18] = in vitro; details: rat, hepatocytes
[19] = DNDI: Protein binding in mouse plasma
[20] = test system: Trypanosoma cruzi; assay: DNDI: Chagas in vivo at 20 mg/kg, 20 days 2x; assay type: functional, Tulahuen Swiss po
[21] = in vitro; details: rat, microsomes
[22] = in vitro; details: mouse, microsomes
[23] = in vitro; details: rat, microsomes; remark: listed apart in the source
[24] = DNDI: Protein binding in rat plasma; assay type: ADME, cell-free; details: read-out: % bound (converted)
[25] = in vitro; details: mouse, microsomes; remark: listed apart in the source
[26] = test system: Trypanosoma cruzi; assay: DNDI: Chagas in vivo at 50 mg/kg, 20 days 1x; assay type: functional, Tulahuen Swiss po
[27] = test system: Leishmania infantum; assay: DNDI: Leish (macro) in Vitro; assay type: functional, organism-based, MHOM/MA(BE)/67
[28] = test system: Trypanosoma brucei brucei; assay: DNDI: HAT in vivo at 50 mg/kg, 4 adm days; assay type: functional, EATRO 110 po
[29] = test system: Trypanosoma brucei brucei; assay: as §2; assay type: functional, organism-based; details: SBRI 427
[30] = test system: Leishmania infantum; assay: DNDI: Leish In Vivo - % inhibition and MSD at 50 mg/kg, 5 days 2x; assay type: functional, MHOM/MA(BE)/67 Hamster-Early curative model po
[31] = Trypanosoma cruzi, Tulahuen C4 (LacZ)

T1 sequence (P08684 whole entry): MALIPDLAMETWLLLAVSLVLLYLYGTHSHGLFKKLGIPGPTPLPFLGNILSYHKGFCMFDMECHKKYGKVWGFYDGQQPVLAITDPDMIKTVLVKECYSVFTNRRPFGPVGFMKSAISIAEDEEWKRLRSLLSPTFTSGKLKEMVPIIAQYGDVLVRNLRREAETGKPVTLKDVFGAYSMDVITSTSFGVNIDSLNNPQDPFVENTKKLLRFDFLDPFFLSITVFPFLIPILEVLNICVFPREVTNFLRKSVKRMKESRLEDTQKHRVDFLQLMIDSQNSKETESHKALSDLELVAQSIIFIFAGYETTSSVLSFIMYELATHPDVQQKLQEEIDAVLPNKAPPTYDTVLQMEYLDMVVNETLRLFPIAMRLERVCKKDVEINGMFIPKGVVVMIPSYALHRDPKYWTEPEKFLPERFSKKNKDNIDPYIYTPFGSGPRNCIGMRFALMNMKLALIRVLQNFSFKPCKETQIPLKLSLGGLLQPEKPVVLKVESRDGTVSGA

SMILES	IC50 [1, 31] [µM]	IC90 [2, 31] [µM]	IC50 ([3]; Trypanosoma brucei, ATCC 30027) [µM]	half-life [6] [h]	microsomal CLint [7] [µL/min/mg]	hepatic extraction ratio [8]	IC50 [1]	solubility kinetic [9] [mg/mL]	chromatographic logD [10]	IC90 [2]	chromatographic logD [11]	solubility kinetic [13] [mg/mL]	IC50 [14] [µM]	IC50 [4] [µM]	inhibition at 10 µM [17] [%]	other results
OC(COc1ccc2cc(Br)ccc2c1)Cn1ccnc1 (centres undefined)	0.03	0.193	> 10	–	–	–	–	–	–	–	–	–	–	65.9	–	IC50 [5]: 0.7 µM
CCOC(=O)c1ccc(-n2ccnc2)c(NC(=O)c2cnc(-c3ccccc3)nc2)c1	0.003	0.037	> 10	2.67	11	0.38	–	–	–	–	–	–	> 20	> 100	–	remaining at 4 h [15]: 1.8%; remaining at 4 h [16]: 0.4%
N#Cc1ccc(-n2ccnc2)c(NC(=O)c2cnc(-c3ccccc3)nc2)c1	> 0.1	> 0.1	> 10	1.88	15	0.46	0.084 µM	0.0031 (≈ 8.46 µM)	1.9	–	2.7	0.05 (≈ 136 µM)	> 20	> 100	53.5	–
CS(=O)(=O)c1ccc(-n2ccnc2)c(NC(=O)c2cnc(-c3ccccc3)nc2)c1	0.09	> 0.1	> 10	> 4.17	< 7	< 0.28	–	0.0125 (≈ 29.8 µM)	1.7	–	2.3	0.05 (≈ 119 µM)	> 20	> 100	48.2	–
CN1CCC(NCC(O)COc2ccc3cc(Br)ccc3c2)CC1 (centres undefined)	–	–	–	–	–	–	0.853 µM and 3.66 µM and 1.93 µM	–	–	5.67 µM and > 1 µM and 8.2 µM	–	–	–	–	–	IC50 [27]: 0.426 µM and 0.198 µM and 0.5 µM; IC50 [3]: 0.028 µM and 0.0745 µM and 0.057 µM; MSD [28]: 7 days; IC50 [29]: 0.053 µM; % inhibition in bone-marrow [30]: 41.4%; % inhibition in liver [30]: 26.8%; % inhibition in spleen [30]: 44.9%

Second part, led by results:

IC50 [1, 31] [µM]	IC90 [2, 31] [µM]	IC50 ([3]; Trypanosoma brucei, ATCC 30027) [µM]	half-life [6] [h]	microsomal CLint [7] [µL/min/mg]	hepatic extraction ratio [8]	IC50 [1]	solubility kinetic [9] [mg/mL]	chromatographic logD [10]	IC90 [2]	chromatographic logD [11]	solubility kinetic [13] [mg/mL]	IC50 [14] [µM]	SMILES	IC50 [4] [µM]	inhibition at 10 µM [17] [%]	other results
0.0255	–	–	0.6	48	0.73	0.026 µM	0.0016 (≈ 4.11 µM)	3.4	0.257 µM and > 0.1 µM	3.8	> 0.1	–	O=c1c2ccccc2nc(-c2ccc(-c3ccccc3)cc2)n1Cc1cccnc1	16.1	–	IC50 [3]: 23.3 µM and > 10 µM; IC50 [12]: 19.4 µM; IC50 [5]: > 20 µM
–	–	> 10	1.22	24	–	0.003 µM and 0.008 µM	< 0.0016	2.6	0.0105 µM and 0.0259 µM	3.4	> 0.1	–	CO/N=C(\C)c1ccc(-n2ccnc2)c(NC(=O)c2cnc(-c3ccccc3)nc2)c1	> 100	47.3	CLhep predicted [18]: 1.6 L/h/kg; fraction unbound [19]: 0.028; PCR cure rate [20]: 0%; Parasitemia clearance after immunosuppression [20]: 60%; Parasitemia clearance after treatment [20]: 80%; half-life [21]: 0.633 h; half-life [22]: 0.867 h; microsomal CLint [23]: 46 µL/min/mg; fraction unbound [24]: 0.014; microsomal CLint [25]: 34 µL/min/mg; PCR cure rate [26]: 0%; Parasitemia clearance after immunosuppression [26]: 0%; Parasitemia clearance after treatment [26]: 60%

From ChEMBL document CHEMBL2448688, “Selection and optimization of hits from a high-throughput phenotypic screen against Trypanosoma cruzi. Exported from HEOS 25-Oct-2013. See also related datasets CHEMBL3137440 and CHEMBL3137386”
